This passage reports IC50 and Ratio IC50 results from ChEMBL document CHEMBL1140481, “Synthesis and identification of novel 11beta-aryl-4',5'-dihydrospiro[estra-4,9-diene-17beta,4'-oxazole] analogs with dissociated antiprogesterone activities” (Bioorg Med Chem Lett, 2007).

The term IC50 denotes the concentration at which inhibition is half-maximal.

In one assay the target is T1, Progesterone receptor (Homo sapiens, UniProt P06401).
T1 sequence (P06401 whole entry): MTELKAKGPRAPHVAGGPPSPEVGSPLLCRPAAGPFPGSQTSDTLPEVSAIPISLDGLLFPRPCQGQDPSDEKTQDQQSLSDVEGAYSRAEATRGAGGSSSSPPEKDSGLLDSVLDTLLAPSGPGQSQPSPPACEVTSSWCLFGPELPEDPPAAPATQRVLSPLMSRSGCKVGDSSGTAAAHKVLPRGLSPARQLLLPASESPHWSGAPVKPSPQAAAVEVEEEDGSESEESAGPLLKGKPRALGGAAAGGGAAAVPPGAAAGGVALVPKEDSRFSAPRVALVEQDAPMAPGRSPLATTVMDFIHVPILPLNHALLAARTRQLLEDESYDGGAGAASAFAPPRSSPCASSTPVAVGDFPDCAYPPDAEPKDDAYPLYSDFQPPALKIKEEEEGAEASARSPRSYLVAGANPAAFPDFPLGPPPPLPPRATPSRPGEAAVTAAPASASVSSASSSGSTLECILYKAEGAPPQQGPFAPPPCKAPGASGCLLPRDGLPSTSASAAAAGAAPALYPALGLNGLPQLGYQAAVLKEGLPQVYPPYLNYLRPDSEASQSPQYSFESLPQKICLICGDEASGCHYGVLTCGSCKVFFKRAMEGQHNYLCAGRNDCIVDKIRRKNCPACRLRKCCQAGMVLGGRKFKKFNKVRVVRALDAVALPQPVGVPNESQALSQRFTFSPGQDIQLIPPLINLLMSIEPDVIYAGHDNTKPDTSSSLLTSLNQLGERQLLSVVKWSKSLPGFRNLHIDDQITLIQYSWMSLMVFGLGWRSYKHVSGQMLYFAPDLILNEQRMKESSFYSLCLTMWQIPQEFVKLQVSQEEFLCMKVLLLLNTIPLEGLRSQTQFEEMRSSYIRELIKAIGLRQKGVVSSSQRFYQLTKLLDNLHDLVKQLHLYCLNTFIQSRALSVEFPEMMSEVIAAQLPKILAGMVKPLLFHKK
The experiment in a line: Antagonist activity at progesterone receptor expressed in human T47D cells assessed as inhibition of promegestone-induced alkaline phosphatase activity. Type of assay: functional, cell-based.

A further assay has as its target T2, Glucocorticoid receptor (Homo sapiens, UniProt P04150).
T2 sequence (P04150 whole entry): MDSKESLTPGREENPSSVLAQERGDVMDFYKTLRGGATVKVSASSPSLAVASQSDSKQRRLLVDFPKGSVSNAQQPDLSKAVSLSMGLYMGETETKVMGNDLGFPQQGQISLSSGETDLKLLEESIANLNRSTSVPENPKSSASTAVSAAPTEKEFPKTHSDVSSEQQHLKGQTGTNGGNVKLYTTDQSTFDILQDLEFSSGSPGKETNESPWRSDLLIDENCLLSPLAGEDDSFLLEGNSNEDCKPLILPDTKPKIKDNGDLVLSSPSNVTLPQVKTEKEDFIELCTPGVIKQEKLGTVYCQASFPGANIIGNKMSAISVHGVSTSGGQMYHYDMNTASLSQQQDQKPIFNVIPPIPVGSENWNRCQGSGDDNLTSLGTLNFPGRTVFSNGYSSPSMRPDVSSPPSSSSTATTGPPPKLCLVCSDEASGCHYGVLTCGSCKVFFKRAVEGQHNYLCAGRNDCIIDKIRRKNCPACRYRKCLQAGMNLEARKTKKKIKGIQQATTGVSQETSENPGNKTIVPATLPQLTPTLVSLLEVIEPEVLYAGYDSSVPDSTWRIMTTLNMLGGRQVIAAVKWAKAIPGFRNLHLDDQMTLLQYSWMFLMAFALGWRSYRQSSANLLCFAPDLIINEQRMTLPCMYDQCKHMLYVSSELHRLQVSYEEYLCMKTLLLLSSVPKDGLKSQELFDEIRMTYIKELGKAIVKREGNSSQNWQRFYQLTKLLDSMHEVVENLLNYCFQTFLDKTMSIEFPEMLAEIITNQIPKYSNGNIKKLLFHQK
The experiment in a line: Antagonist activity at glucocorticoid receptor expressed in A549 cells assessed as inhibition of corticoid-induced gene transcription by luciferase reporter gene assay. Type of assay: functional, cell-based. (In general: In a reporter assay the amount or activity of a reporter protein is the signal.)

The species entered for the next assay is Homo sapiens. The experiment in a line: Ratio of IC50 for glucocorticoid receptor to IC50 for progesterone receptor.

On to `C=C1OC(CC)=N[C@]12CC[C@H]1[C@@H]3CCC4=CC(=O)CCC4=C3[C@@H](c3ccc(C(C)=O)cc3)C[C@@]12C`, for which the IC50 at Progesterone receptor worked out at 0.34 nM; on Glucocorticoid receptor it was 210 nM. Further, in the assay listed under Homo sapiens, the Ratio IC50 turned out to be 620.

Take `C=C1OC=N[C@]12CC[C@H]1[C@@H]3CCC4=CC(=O)CCC4=C3[C@@H](c3ccc(C(C)=O)cc3)C[C@@]12C`: the IC50 at Progesterone receptor was found to be 82 nM; on Glucocorticoid receptor, 14000 nM. In the assay filed under Homo sapiens, the Ratio IC50 worked out at 171.

Turning to `C=C1OC(CC)=N[C@]12CC[C@H]1[C@@H]3CCC4=CC(=O)CCC4=C3[C@@H](c3ccc(OC)c(F)c3)C[C@@]12C`, the values for the IC50 on Progesterone receptor and at Glucocorticoid receptor were 1 nM and greater than 10000 nM, respectively. In the assay listed under Homo sapiens, the Ratio IC50 is greater than 10000.

Take `C=C1OC(C)=N[C@]12CC[C@H]1[C@@H]3CCC4=CC(=O)CCC4=C3[C@@H](c3ccc(N(C)C)cc3)C[C@@]12C`: the IC50 on Progesterone receptor was determined as 0.63 nM; at Glucocorticoid receptor, 82 nM. In addition, the Ratio IC50 in the assay listed under Homo sapiens was 130.

In the case of `C=C1OC=N[C@]12CC[C@H]1[C@@H]3CCC4=CC(=O)CCC4=C3[C@@H](c3ccc(N(C)C)cc3)C[C@@]12C`, the IC50 stood at 18 nM on Progesterone receptor and 540 nM at Glucocorticoid receptor. Besides, the Ratio IC50 in the assay filed under Homo sapiens is 30.

On to `C=C1OC(C)=N[C@]12CC[C@H]1[C@@H]3CCC4=CC(=O)CCC4=C3[C@@H](c3ccc(C(C)=O)cc3)C[C@@]12C`, for which the IC50 on Progesterone receptor came to 0.59 nM; on Glucocorticoid receptor, 460 nM. In addition, the Ratio IC50 in the assay listed under Homo sapiens came to 780.

On to `C=C1OC(CC)=N[C@]12CC[C@H]1[C@@H]3CCC4=CC(=O)CCC4=C3[C@@H](c3ccc(N(C)C)cc3)C[C@@]12C`, for which the IC50 on Progesterone receptor was determined as 0.98 nM; on Glucocorticoid receptor, 23 nM. The Ratio IC50 in the assay filed under Homo sapiens was 24.

For `C=C1OC(C)=N[C@]12CC[C@H]1[C@@H]3CCC4=CC(=O)CCC4=C3[C@@H](c3ccc(OC)c(F)c3)C[C@@]12C`, the IC50 on Progesterone receptor turned out to be 4.6 nM; on Glucocorticoid receptor, 660 nM. For the same molecule, the Ratio IC50 in the assay listed under Homo sapiens came out at 140.
